Tests used:
kochia [1] = assay: Test A preemergence; format: in vivo, Bassia scoparia; settings: 1000 g ai/ha, 0 to 100 scale (0 no effect, 100 complete control), 10 days
Procedure, shortened: (§1)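 Plants were grown in loam and sand and treated preemergence or postemergence (one- to two-leaf stage, 2–10 cm) with compound in solvent plus surfactant. Response was scored against untreated controls after 10 greenhouse days, where 0 means no effect and 100 complete control.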

Pigweed, Redroot [2] = assay: Test A postemergence; format: in vivo, Amaranthus retroflexus; settings: 1000 g ai/ha, Postemergence; 0 to 100 scale
Text: (§2) Seeds of plant species selected from barnyardgrass (Echinochloa crusgalli), blackgrass (Alopecurus myosuroides), corn (Zea mays), foxtail, giant (giant foxtail, Setaria faberi), goosegrass (Eleusine indica), kochia (Bassia scoparia), oat, wild (wild oat, Avena fatua), pigweed, palmer (palmer amaranth, palmer pigweed, Amaranthus palmeri), Pigweed, Redroot (redroot pigweed, Amaranthus retroflexus), ragweed (common ragweed, Ambrosia artemisiifolia), ryegrass, Italian (italian ryegrass, Lolium multiflorum), soybean (Glycine max), and wheat (Triticum aestivum) were planted into a blend of loam soil and sand and treated preemergence with a directed soil spray using test chemicals formulated in a non-phytotoxic solvent mixture which included a surfactant. At the same time, plants selected from these crops and weed species and also galium (catchweed bedstraw, Galium aparine) and horseweed (Erigeron canadensis) were planted in pots containing the same blend of loam soil and sand and treated with postemergence applications of test chemicals formulated in the same manner. Plants ranged in height from 2 to 10 cm and were in the one- to two-leaf stage for the postemergence treatment. Treated plants and untreated controls were maintained in a greenhouse for 10 days, after which time all treated plants were compared to untreated controls and visually evaluated for injury. Plant response ratings, summarized in Table A, are based on a 0 to 100 scale where 0 is no effect and 100 is complete control. A dash (-) response means no test result.

ducksalad = assay: Test B flooded paddy test; format: in vivo, Heteranthera limosa; settings: 250 g ai/ha, Flood, 13 days, 0 to 100 scale (0 no effect, 100 complete control)
Procedure, shortened: (§3)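 Species grown to 2-leaf stage; pots flooded 3 cm above soil and compound applied directly to paddy water, depth maintained throughout. After 13 days in greenhouse, plants visually rated against controls on 0–100 scale (0 no effect, 100 complete control); dash means no result.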

Pigweed, Redroot [3] = assay: Test A preemergence; format: in vivo, Amaranthus retroflexus; settings: 1000 g ai/ha, 0 to 100 scale (0 no effect, 100 complete control), 10 days
Text: as §2

foxtail, giant [4] = assay: Test A postemergence; format: in vivo, Setaria faberi; settings: 1000 g ai/ha, Postemergence; 0 to 100 scale
Procedure, shortened: as §1

sedge, umbrella = assay: Test B flooded paddy test; format: in vivo, Cyperus difformis; settings: 250 g ai/ha, Flood, 13 days, 0 to 100 scale (0 no effect, 100 complete control)
Procedure, shortened: as §3

barnyardgrass [5] = assay: Test A postemergence; format: in vivo, Echinochloa crusgalli; settings: 1000 g ai/ha, Postemergence; 0 to 100 scale
Procedure, shortened: as §1

ragweed [6] = assay: Test A postemergence; format: in vivo, Ambrosia artemisiifolia; settings: 1000 g ai/ha, Postemergence; 0 to 100 scale
Procedure, shortened: as §1

rice = assay: Test B flooded paddy test; format: in vivo, Oryza sativa; settings: 250 g ai/ha, Flood, 13 days, 0 to 100 scale (0 no effect, 100 complete control)
Procedure, shortened: as §3

kochia [7] = assay: Test A postemergence; format: in vivo, Bassia scoparia; settings: 1000 g ai/ha, Postemergence; 0 to 100 scale
Procedure, shortened: as §1

ryegrass, Italian [8] = assay: Test A postemergence; format: in vivo, Lolium multiflorum; settings: 1000 g ai/ha, Postemergence; 0 to 100 scale
Procedure, shortened: as §1

ragweed [9] = assay: Test A preemergence; format: in vivo, Ambrosia artemisiifolia; settings: 1000 g ai/ha, 0 to 100 scale (0 no effect, 100 complete control), 10 days
Procedure, shortened: as §1

corn = assay: Test A postemergence; format: in vivo, Zea mays; settings: 1000 g ai/ha, Postemergence; 0 to 100 scale
Procedure, shortened: as §1

barnyardgrass [10] = assay: Test A preemergence; format: in vivo, Echinochloa crusgalli; settings: 1000 g ai/ha, 0 to 100 scale (0 no effect, 100 complete control), 10 days
Procedure, shortened: as §1

ryegrass, Italian [11] = assay: Test A preemergence; format: in vivo, Lolium multiflorum; settings: 1000 g ai/ha, 0 to 100 scale (0 no effect, 100 complete control), 10 days
Procedure, shortened: as §1

barnyardgrass [12] = assay: Test B flooded paddy test; format: in vivo, Echinochloa crus-galli; settings: 250 g ai/ha, Flood, 13 days, 0 to 100 scale (0 no effect, 100 complete control)
Procedure, shortened: as §3

wheat = assay: Test A postemergence; format: in vivo, Triticum aestivum; settings: 1000 g ai/ha, Postemergence; 0 to 100 scale
Procedure, shortened: as §1

blackgrass = assay: Test A postemergence; format: in vivo, Alopecurus myosuroides; settings: 1000 g ai/ha, Postemergence; 0 to 100 scale
Procedure, shortened: as §1

foxtail, giant [13] = assay: Test A preemergence; format: in vivo, Setaria faberi; settings: 1000 g ai/ha, 0 to 100 scale (0 no effect, 100 complete control), 10 days
Procedure, shortened: as §1

galium = assay: Test A postemergence; format: in vivo, Galium aparine; settings: 1000 g ai/ha, Postemergence; 0 to 100 scale
Procedure, shortened: as §1

| SMILES | Plant response rating, Kochia (kochia [1]) | Plant response rating, Pigweed, Redroot (Pigweed, Redroot [2]) | Plant response rating, Ducksalad (ducksalad) | Plant response rating, Pigweed, Redroot (Pigweed, Redroot [3]) | Plant response rating, Foxtail, Giant (foxtail, giant [4]) | Plant response rating, Sedge, Umbrella (sedge, umbrella) | Plant response rating, Barnyardgrass (barnyardgrass [5]) | Plant response rating, Ragweed (ragweed [6]) | Plant response rating, Rice (rice) | Plant response rating, Kochia (kochia [7]) | Plant response rating, Ryegrass, Italian (ryegrass, Italian [8]) | Plant response rating, Ragweed (ragweed [9]) | Plant response rating, Corn (corn) | Plant response rating, Barnyardgrass (barnyardgrass [10]) | Plant response rating, Ryegrass, Italian (ryegrass, Italian [11]) | Plant response rating, Barnyardgrass (barnyardgrass [12]) | Plant response rating, Wheat (wheat) | Plant response rating, Blackgrass (blackgrass) | Plant response rating, Foxtail, Giant (foxtail, giant [13]) | Plant response rating, Galium (galium) |
| --- | --- | --- | --- | --- | --- | --- | --- | --- | --- | --- | --- | --- | --- | --- | --- | --- | --- | --- | --- | --- |
| CC1CN(C(=O)c2cccc(-n3cncn3)c2)c2cccc(Br)c2O1 (centres unmarked) [Compound 25] | 30 | 40 | 35 | 100 | 90 | 0 | 50 | 0 | 0 | 50 | 90 | 0 | 70 | 90 | 100 | 0 | 70 | 90 | 100 |  |
| Cc1cccc2c1OC(C)CN2C(=O)c1ccc(C#N)c(-n2cncn2)c1 (centres unmarked) [Compound 29] | 20 | 50 | 0 | 60 | 90 | 0 | 70 | 0 | 0 | 10 | 50 | 0 | 80 | 90 | 90 | 0 | 60 | 70 | 100 |  |
| C#Cc1cccc2c1OC(C)CN2C(=O)c1cccc(-n2cncn2)c1 (centres unmarked) [Compound 30] | 20 | 30 | 0 | 100 | 40 | 0 | 20 | 0 | 0 | 10 | 70 | 0 | 10 | 30 | 100 | 0 | 40 | 70 | 80 |  |
| C[C@H]1CN(C(=O)c2cccc(-n3cnnc3)c2)c2cccc(Cl)c2O1 [Compound 128] | 40 | 0 |  | 0 | 20 |  | 30 | 30 |  | 0 | 0 | 0 | 0 | 0 | 60 |  | 0 | 30 | 50 | 30 |
| C[C@H]1CN(C(=O)c2cccc(-n3cccn3)c2)c2cccc(Cl)c2O1 [Compound 129] | 20 | 70 |  | 20 | 10 |  | 20 | 0 |  | 10 | 0 | 0 | 0 | 20 | 50 |  | 0 | 30 | 0 | 30 |

Reference: patent publication US20260262643A1, “HERBICIDAL BENZOXAZINES” (FMC CORPORATION, priority 2022, published 2026)
